According to US11389423B2, “Pharmaceutical composition, excipient for the composition and use of the composition” (priority 2018, dated 2022):

Experiments:
[1] = test system: DNA of male and female rats; conditions: rats male and female, 20 mg/kg intraperitoneally, 24 hours, positive control
Method: The negative control group received placebo by gavage and the positive control was treated with cyclophosphamide monohydrate (20 mg/kg—Sigma-Aldrich) intraperitoneally.

[2] = test system: polychromatic erythrocytes; conditions: rats male and female, 20 mg/kg intraperitoneally
Method: To perform the micronucleus test (Schmid, 1976), different groups of rats (male and female; n=10) received three doses of CBD (500, 1000 and 2000 mg/kg) orally. The negative control group received placebo by gavage and the positive control was treated with cyclophosphamide monohydrate (20 mg/kg—Sigma-Aldrich) intraperitoneally. After 24 hours (cyclophosphamide) and 48 hours (CBD-SINT and vehicle) the end of treatments, the animals were euthanized by decapitation. The femurs were removed, the proximal epiphysis was removed to expose the medullary canal and, with the aid of a 13×4.5 mm needle and 3 mL NaCl solution (150 mM), the marrow was removed, washing the medullary canal with NaCl solution. The material was transferred to glass tubes and centrifuged at 1000 rpm/5 min. After centrifugation, the supernatant was discarded, and the deposit was resuspended with a 4% formaldehyde solution and slightly homogenized with the aid of a Pasteur pipette. A drop of this cell suspension was placed on a clean, dry slide, and then the smear was performed. The slides were dried at room temperature and, after 24 hours, stained with Leishman eosin-methylene blue and subjected to microscopic analysis. To determine the number of micronuclei, 2000 polychromatic erythrocytes were counted per animal (1000 in each slide) using an optical microscope, at 400× magnification. The analysis of the slides was blind and performed by a single evaluator.

O=P1(N(CCCl)CCCl)NCCCO1 (stereo not shown) [cyclophosphamide, cyclophosphamide monohydrate, reference compound]
increase in the frequency of damage [1]: approximately 100% | increase in the index of damage [1]: approximately 100% | average number of MNPCE ([2]; 24 hours, positive control (C+)): significant increase | ratio of polychromatic/normochromatic erythrocytes (PCE/NCE ratio) ([2]; positive control): significantly changed
